For series [1], the system named is ribosomal S6 protein phosphorylation in Nf1−/− astrocytes. Description: S6 phosphorylation (phospho-S6 Ser240/244 Western blot) in Nf1−/− astrocytes. Type of series: cell-based, mouse. The procedure:
(§1) Western blot analysis was performed as described previously in, for example, Dasgupta B et al., The Neurofibromatosis 1 Gene Product Neurofibromin Regulates Pituitary Adenylate Cyclase-Activating Polypeptide-Mediated Signaling in Astrocytes, J. NEUROSCI. 23:8949-8954 (2003). The following antibodies were used: anti-NF1GRP, nucleolin, and cyclin D1 (Santa Cruz Biotechnology, Santa Cruz, Calif.), phospho-S6 (Serine-240/244; Cell Signaling Technology, Beverley, Mass.), α-tubulin and fibrillarin (Sigma, St. Louis, Mo.), anti-T7 (Novagen, Madison, Wis.), anti-KT3 (Babco, Richmond, Calif.), NPM (Zymed, San Francisco, Calif.), and L7 (Novus Biologicals, Littleton, Colo.).
(§2) One of the downstream targets of activated RAS is P13-Kinase. See Rodriguez-Viciana P, et al., Phosphatidylinositol-3-OH Kinase as a Direct Target of Ras, NATURE 370:527-532 (1994). In this regard, loss of neurofibromin expression is associated with activation of the PI3K-AKT signaling pathway in human NF1-associated pilocytic astrocytoma and in Nf1−/− mouse myeloid cells. See Lau N, et al., Loss of Neurofibromin is Associated with Activation of Ras/MAPK and PI3K/AKT Signalling in a Neurofibromatosis 1 Astrocytoma, J NEUROPATHOL. EXP. NEUROL. 59:759-767 (2000); and Donovan S, et al., Hyperactivation of Protein Kinase B and Erk Have Discrete Effects on Survival, Proliferation, and Cytokine Expression in Nf1-Deficient Myeloid Cells, CANCER CELL 2:507-514 (2002). Several studies have shown that activation of the PI3K-AKT leads to activation of the mammalian target of rapamycin (mTOR), which leads to phosphorylation of S6 kinase and activation of ribosomal S6. See Chung J, et al., PDGF- and Insulin-Dependent pp70S6k Activation Mediated by Phosphatidylinositol-3-OH Kinase, NATURE 370:71-75 (1994); and Gingras A C, et al., Regulation of Translation Initiation by FRAP/mTOR, GENES DEV. […] To determine whether S6 hyperactivation in Nf1−/− astrocytes is downstream of PI3K and mTOR, S6 phosphorylation in both Nf1+/+ and Nf1−/− astrocytes in presence of a PI3K inhibitor (LY294002) and an mTOR inhibitor (rapamycin) was measured. […]

The test system of series [2] is ribosomal S6 protein phosphorylation in wild-type (Nf1+/+) astrocytes. In words: S6 phosphorylation (phospho-S6 Ser240/244 Western blot) in wild-type astrocytes. Type of series: cell-based, mouse. To be noted: for S6 phosphorylation: wild-type astrocytes. The procedure:
as §1, §2
(In general: A western blot detects proteins with antibodies after separation by electrophoresis.)

In another series the test system is astrocytes. To be noted: mouse, 1 μM.
The target of series [3] is 12 kDa FK506 binding protein (FKBP12) (Homo sapiens, UniProt P62942). The conditions noted are these: cited from earlier work.
Series [4] deals with FKBP-rapamycin binding domain (FRB) of mammalian target of rapamycin (mTOR) (Homo sapiens, UniProt P42345+P62942). The conditions noted are these: cited from earlier work.
In another series the test system is Nf1−/− astrocytes. In words: Astrocyte proliferation by 3[H]-thymidine incorporation, Nf1−/− astrocytes.
Another series concerns wild-type astrocytes. Description: Astrocyte proliferation by 3[H]-thymidine incorporation, wild-type astrocytes. (Uptake of a labelled nucleoside into DNA is a usual measure of proliferation.)
[5] abbreviates: control astrocytes, FIG. 6 legend.

FKBP-rapamycin binding domain (FRB) of mammalian target of rapamycin (mTOR), sequence (P42345 2015-2114, species assumed): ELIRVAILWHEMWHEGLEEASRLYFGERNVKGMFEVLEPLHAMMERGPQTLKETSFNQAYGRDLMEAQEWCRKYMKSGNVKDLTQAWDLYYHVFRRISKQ
FKBP-rapamycin binding domain (FRB) of mammalian target of rapamycin (mTOR), sequence (P62942 2-108, species assumed): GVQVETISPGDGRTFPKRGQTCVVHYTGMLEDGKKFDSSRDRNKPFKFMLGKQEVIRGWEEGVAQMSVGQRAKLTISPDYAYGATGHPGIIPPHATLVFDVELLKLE
12 kDa FK506 binding protein (FKBP12), sequence (P62942 whole entry, species assumed, the tested form may be a part): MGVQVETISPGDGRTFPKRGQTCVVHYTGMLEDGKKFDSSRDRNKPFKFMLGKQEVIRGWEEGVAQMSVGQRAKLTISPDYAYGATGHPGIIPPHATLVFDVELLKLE

For `CO[C@H]1C[C@@H]2CC[C@@H](C)[C@@](O)(O2)C(=O)C(=O)N2CCCC[C@H]2C(=O)O[C@H]([C@H](C)C[C@@H]2CC[C@@H](O)[C@H](OC)C2)CC(=O)[C@H](C)/C=C(\C)[C@@H](O)[C@@H](OC)C(=O)[C@H](C)C[C@H](C)/C=C/C=C/C=C/1C` [rapamycin, Rapamycin], the S6 phosphorylation result in series [1] (1 μM, FIG. 6 inset) is given as “significantly inhibited”; in series [1] (5 μM, FIG. 2C), “completely inhibited”; in series [2] (1 μM, FIG. 6 inset), “no effect”; in series [2] (5 μM, FIG. 2C), “completely inhibited”. In series [1] (FIG. 6 legend), the “inhibition of ribosomal S6 protein phosphorylation, dose dependence” value is “dose-dependent inhibition”. Besides, the “effect on ribosomal S6 protein phosphorylation in control astrocytes” value in series [2] (setting [5]) was “little or no effect”. Further, in the series with astrocytes, the “cell survival (Trypan blue exclusion)” value was “greater than 98%”. Further, the “binding affinity to FKBP12” value in series [3] was “high affinity”. Moreover, the “binding affinity to FRB domain (E2015 to Q2114) of mTOR” value in series [4] is reported as “high affinity”. Also, the reduction of proliferation with Nf1−/− astrocytes (1 μM) is 55±9.5%. Moreover, in the series with Nf1−/− astrocytes (FIG. 6 legend), the “inhibition of cell proliferation (growth), dose dependence” value was “dose-dependent inhibition”. For the same compound, the “effect on cell proliferation (growth) in control astrocytes” value with wild-type astrocytes (setting [5]) is given as “little or no effect”. For the same compound, the “reduction of basal proliferation” value with wild-type astrocytes (wild-type astrocytes, 1 μM) stood at 16±4%.

The values are drawn from US20070004767A1, “Methods for treating neurofibromatosis 1” (priority 2005, published 2007).
